The test system of assay [1] is neonatal rat cardiomyocytes. Particulars: neonatal rat cardiomyocytes cultures; cited from earlier work.
Assay [2] deals with 5LO interaction with COX2 / cPLA2. Description: co-immunoprecipitation of 5LO with COX2 and cPLA2 in rat hearts. The format is in vivo. As to the method: (§1) Rats received: 1) PIO (10 mg/kg/d); 2) ATV (10 mg/kg/d); 3) PIO (10 mg/kg/d)+H89 (20 mg/kg); 4) ATV (10 mg/kg/d)+H89 (20 mg/kg); 5) H89 (20 mg/kg) or 6) water alone (control). PIO and ATV were suspended in water and administered by gastric gavage once daily for 3 days; H-89 was dissolved in DMSO (final concentration 5% v/v) and injected intraperitoneally on the third day. Rats in groups 5 and 6 received water by gastric gavage once daily for 3 days. Rats in groups 1, 2 and 6 received intraperitoneal inkection of DMSO 5%. Sixteen hours after the injection, rats were euthanized and the hearts explanted for further analyses. In another experiment, rats received 3-day pretreatment with: 1) water (sham); 2) PIO (10 mg/kg/d); 3) ATV (10 mg/kg/d); 4) PIO (10 mg/kg/d)+ATV (10 mg/kg/d); or 5) LPS (10 mg/kg).
For co-immunoprecipitation, myocardial cytosolic, membranous and nuclear fractions (500 μg) were incubated with anti-5LO antibodies for 4 h followed by overnight incubation at 4° C. with Protein-A-Agarose. The agarose beads were collected by centrifugation and SDS/PAGE Western immunoblotting was performed with the supernatant fraction. The anti-5LO precipitates were subjected to immunoblotting with anti-COX2 or anti-cPLA2 antibodies.

The next assay relates to 5LO mRNA. The assay can be described thus: rtPCR of 5LO mRNA in adult rat cardiomyocytes. The assay is classed as cell-based. Here is the method:
Cardiac myocytes were isolated from adult Sprague-Dawley rats (250-300 g, male). Animals were heparinized (1,000-2,000 units i.p.) 5 min before being anesthetized with ketamine (100 mg/kg) and xylazine (10 mg/kg), and the hearts were removed and placed in ice-cold heart media solution (in mmol/l: 112 NaCl, 5.4 KCl, 1 MgCl2, 9 NaH2PO4, and 11.1 D-glucose; supplemented with 10 HEPES, 30 taurine, 2 DL-carnitine, and 2 creatine, pH. 7.4). The hearts were perfused retrogradely in a Langendorff apparatus with Ca^2+-free heart media for 5 min at 5 ml/min at 37° C., followed by perfusion with Ca^2+-free heart media containing collagenase II, 210 U/mg (Worthington, Lakewood, N.J.) for 20 min. After perfusion, both ventricles were removed from the heart and minced in collagenase II-containing heart media for 10-15 min. The cell solution was then washed several times to remove collagenase II and reexposed to 1.2 mM Ca2^+ over 25 min to produce Ca2^+-tolerant cardiac myocytes. Myocytes were then plated in 4% FBS on laminin (2 μg/cm^2)-coated plates for 1 h and incubated at 37° C. in 5% CO2 for 12-24 h before experiments (21). Cells were incubated with 1) vehicle (0.07% ethanol); 2) PIO (10 μM)+ATV (10 μM); 3) H-89 (0.1 μM); or 4) PIO+ATV+H-89 for 12 hours. The supernatants were collected directly for LTB4 analyses by ELISA and the cells were harvested for immunoblotting. In addition, cells were plated in 8-chamber slides, received the same treatment as above and were used for immunohistochemical staining.
Equal amounts of total cellular RNA were reverse-transcribed with oligo(dT) primer by use of AMV Reverse Transcriptase (Applied Biosystems). Transcribed cDNAs (40 ng) were used for Real Time PCR with specific primers: rat ALOX5. […] The Ct (threshold cycle) is defined as the number of cycles required for the fluorescence signal to exceed the detection threshold. Expression of the ALOX5 relative to the GAPDH was calculated as the different between the threshold values of these two genes. […]

In assay [3] the test system is 5LO (Ser523 phosphorylated 5LO). Description: immunoblotting of total 5LO and P-5LO in rat myocardium (whole cell homogenate). The format is in vivo. As to the method:
as §1
PIO and ATV were administered by oral gavage once daily as above; LPS was administered intravenously. In addition, rats in groups 1-4 received intravenous saline on the […], whereas rats in group 1 and 5 received water by gastric gavage once daily for 3 days and the LPS injection on the third day. Sixteen hours after the injection, rats were euthanized and the hearts explanted for further analyses.
The hearts were rapidly explanted, rinsed in cold PBS (pH 7.4), containing 0.16 mg/ml heparin to remove red blood cells and clots, frozen in liquid nitrogen and stored at −70° C. Myocardial samples from the anterior left ventricular wall were homogenized in RIPA lysis buffer (Santa Cruz Biotechnology, Santa Cruz, Calif.) and centrifuged at 14,000 rpm for 15 min at 4° C. The supernatant was collected and the total protein concentration was determined using the Lowry protein assay. […] The protein samples with loading buffer were run in 4-20% Tri-HCl Ready Gel at a 100V for 2 h until the desired molecular weight bands were separated. After electrophoresis, the gel was equilibrated in transfer buffer (25 mM Tris, 193 mM glycine, 0.1% SDS and 10% methanol) and the proteins were transferred to nitrocellulose membrane. The protein signals were quantified by an image-scanning-densitometer and the strength of each protein signal was normalized to the corresponding b-actin stain signal. Data are expressed as a ratio between the protein and the corresponding b-actin signal density.

The test system of a further assay is 5LO. The assay can be described thus: immunoblotting of 5LO in cytosolic, membranous and nuclear fractions of myocardial cells. The format is in vivo. Particulars: rat myocardium. Here is the method: Rats received: 1) […] (20 mg/kg) or 6) water alone (control). PIO and ATV were suspended in water and administered by gastric gavage once daily for 3 days; H-89 was dissolved in DMSO (final concentration 5% v/v) and injected intraperitoneally on the third day. Rats in groups 5 and 6 received water by gastric gavage once daily for 3 days. Rats in groups 1, 2 and 6 received intraperitoneal inkection of DMSO 5%. Sixteen hours after the injection, rats were euthanized and the hearts explanted for further analyses. In another experiment, rats received 3-day pretreatment with: 1) […]); or 5) LPS (10 mg/kg). Myocardial samples (0.25 g) were homogenized, mixed with Buffer A Mix [Hepes (pH 7.9) 10 mM, KCl 10 mM, EDTA 10 mM, DTT 100 mM, protease inhibitor cocktail, and IGEPAL 10%, (Sigma, St Lois, Mo.)], homogenized again and incubated for 15 min on ice, and centrifuged at 850×g for 10 min at 4° C. The supernatant was discharged, Buffer A Mix was added again and the samples incubated for an additional 15 min on ice, and centrifuged at 15,000×g for 3 min at 40 C. The supernatant contains the cytosolic fraction was collected. The pellet was resuspended in 150 μl of Buffer B Mix [Hepes (pH 7.9) 20 mM, NaCl 0.4M, EDTA 1 mM, glycerol 10%, protease inhibitor cocktail, and IGEPAL 10%], the tubes were shaked on ice at 200 rpm for 2 h, centrifuged at 15,000×g for 5 min at 4° C., and supernatants were collected as the nuclear fraction. […] The hearts were rapidly explanted, rinsed in cold PBS (pH 7.4), containing 0.16 mg/ml heparin to remove red blood cells and clots, frozen in liquid nitrogen and stored at -70° C. Myocardial samples from the anterior left ventricular wall were homogenized in RIPA lysis buffer (Santa Cruz Biotechnology, Santa Cruz, Calif.) and centrifuged at 14,000 rpm for 15 min at 4° C. The supernatant was collected and the total protein concentration was determined using the Lowry protein assay. […] The protein samples with loading buffer were run in 4-20% Tri-HCl Ready Gel at a 100V for 2 h until the desired molecular weight bands were separated. After electrophoresis, the gel was equilibrated in transfer buffer (25 mM Tris, 193 mM glycine, 0.1% SDS and 10% methanol) and the proteins were transferred to nitrocellulose membrane. The protein signals were quantified by an image-scanning-densitometer and the strength of each protein signal was normalized to the corresponding b-actin stain signal. Data are expressed as a ratio between the protein and the corresponding b-actin signal density.

Another assay deals with rat infarct model. Description: rat infarct model, infarct size. The format is in vivo. As to conditions: ATV 2 mg/kg/d, cilostazol 20 mg/kg/d, alone or combined. As to the method: The effects of cilostazol (Pletal) and atorvastatin on myocardial protection was measured in a rat infarct model. Pletal is a phosphodiesterase III inhibitor, thus increasing intracellular cAMP levels. cAMP activates PKA. ATV at 2 mg/kg/d had no effect. Cilostazol 20 mg/kg/d reduced infarct size. However, when combined with ATV 2 mg/kg/d the effect was much greater. There are 8 rats in the control and ATV 2 mg/kg/d groups and 6 rats in the cilostazol and the combination groups. Infarct size in the ATV 2 mg/kg/d (30.48±1.46%) is not different from the controls (33.97±2.76%).

Setting [4] is: whole cell homogenate, PIO or ATV 10 mg/kg/d 3 days, H-89 20 mg/kg i.p.

The structures appear in SMILES notation. “Also recorded” adds a separate entry of the source.

Results on three molecules are retold here after patent US20090042849A1, “Phosphorylation of 5-lipoxygenase at ser523 and uses thereof” (priority 2006, published 2009).

With `CC(C)c1ccc2c(c1)c(SC(C)(C)C)c(CC(C)(C)C(=O)O)n2Cc1ccc(Cl)cc1` [MK886], the “calcium ionophore (A23187) induction of reactive oxygen species” value in assay [1] is recorded as “prevented”.

With `CCc1ccc(CCOc2ccc(CC3SC(=O)NC3=O)cc2)nc1` (centres unmarked) [PIO, 5-[[4-[2-(5-ethylpyridin-2 yl)ethoxy]phenyl]methyl]thiazolidine-2,4-dione], in assay [2] (cytosolic and membranous fractions), the “fraction in which the co-immunoprecipitation with 5LO occurred” value is on record as “in the cytosolic, but not the membranous fraction; also recorded: only in the cytosolic fraction”. Besides, the “co-immunoprecipitation of COX2 or cPLA2 with 5LO” value in assay [2] (whole cell lysate) is 5LO precipitated with COX2 and COX2, but not cPLA2, precipitated with 5LO. Also, the “5LO mRNA levels in the cardiomyocytes” value with 5LO mRNA is “did not affect”. Further, the “5LO phosphorylation, PIO and ATV compared with LPS” value in assay [3] (PIO, ATV 10 mg/kg/d, LPS 10 mg/kg i.v.) is listed as “significantly greater increase”. Moreover, in assay [3] (setting [4]), the “myocardial levels of Ser523 phosphorylated 5LO (P-5LO)” value is “augment; also recorded: increased” and the “myocardial total 5LO levels” value is “without detectable change; also recorded: did not affect”. For the same molecule, in the assay on 5LO, the “5LO levels in the cytosolic fraction” value is reported as “small, yet significant increase” and the “5LO levels in the membranous fraction” value is reported as “no detectable effect”.

As for `O=C1CCc2cc(OCCCCc3nnnn3C3CCCCC3)ccc2N1` [cilostazol], in the assay with rat infarct model, the Infarct size came out at 15.47±1.61% and the “effect on infarct size (in words)” value was “reduced”.
